Patent US9492365B2, “Use of caftaric acid and derivatives in food supplement for regulating skin pigmentation” (Nestec S.A., priority 2010, dated 2016)

Legend:
HDF = test: Highest non cytotoxic concentration on HDF; format: cell-based; conditions: HDF cells
HPEK = test: Highest non cytotoxic concentration on HPEK; format: cell-based, human; conditions: HPEK cells
B16 murine melanocytes = test: Production of melanin by B16 murine melanocyte cell line; format: cell-based; conditions: B16 melanocytes treated for 72 hours, presence or absence of NDP-MSH; relative to control (FIG. 1); Kojic acid at 400 μg/mL
Procedure: In order to evaluate the potential beneficial effect of ingredients towards skin de- or pro-pigmentation we used 2D culture of murine melanocytes (B16) and we performed 2 tests: 1—assessment of melanin production and 2—assessment of tyrosinase production. 1. The cell culture conditions. • B16 cells were cultured in DMEM 1 g/L glucose without phenol red supplemented with 10% foetal calf serum, in a humidified chamber at 37° C. and containing 5% CO2. 2. The production of melanin by B16 murine melanocyte cell line. • Cells were incubated with the selected ingredients or the test references (Kojic acid at 400 μg/mL) for 72 hours, in the presence or absence of NDP-MSH an analog of MSH. The total quantity of melanin (extracellular and intracellular) was evaluated by measurement of the optical density at 405 nm of each sample against melanin standards in presence or in absence of NDP-MSH.

tyrosinase = test: Production of tyrosinase by B16 murine melanocyte cell line (immunolabeling); format: cell-based; conditions: B16 melanocytes, 48 hours, immunolabeling (FIG. 2)
Procedure: In order to evaluate the potential beneficial effect of ingredients towards skin de- or pro-pigmentation we used 2D culture of murine melanocytes (B16) and we performed 2 tests: 1—assessment of melanin production and 2—assessment of tyrosinase production. 1. The cell culture conditions. • B16 cells were cultured in DMEM 1 g/L glucose without phenol red supplemented with 10% foetal calf serum, in a humidified chamber at 37° C. and containing 5% CO2. 3. The production of tyrosinase by B16 murine melanocyte cell line. • Cells were incubated with the selected ingredients or the test references (Kojic acid at 400 μg/mL) for 48 hours. The production of tyrosinase was evaluated by immunolabeling.

filaggrin = test: Synthesis of filaggrin by human epidermal keratinocytes (immunolabeling); format: cell-based; conditions: human primary epidermal keratinocytes, 144 hours
Procedure: The potential beneficial effect of the Extracts of Example 1 towards skin barrier function and skin hydration was evaluated by using 2D culture of human primary epidermal keratinocytes and we assessed their synthesis of filaggrin. Human epidermal keratinocytes were cultured in control keratinocytes-SFM medium, in a humidified chamber at 37° C. and containing 5% CO2. Cells were incubated with the selected ingredients or the test references (CaCl2 at 1.5 mM) for 144 hours. The production of filaggrin by was evaluated by immunolabeling.

Compound | Highest non cytotoxic conc. on HDF (HDF) | Highest non cytotoxic conc. on HPEK (HPEK) | Melanin production (B16 murine melanocytes) | Production of tyrosinase (tyrosinase) | Filaggrin production (filaggrin)
O=C(/C=C/c1ccc(O)c(O)c1)O[C@@H](C(=O)O)[C@@H](O)C(=O)O [Caftaric acid] | 1 mM | 1 mM | decreased the production of melanin in vitro, more efficiently than the tested chicory extract MS-70 | decreased by these ingredients but to a limited extent | increased filaggrin production
O=c1cc(CO)occ1O [Kojic acid, reference compound] | – | – | decrease in melanin production | – | –
